Laboratory results published in patent US20210382058A1, “PATIENT SELECTION FOR TREATMENT OF MYC POSITIVE CANCERS WITH INDENOISOQUINOLINES” (Purdue Research Foundation, priority 2020, published 2021).
Where two headings read alike, the source gives them in different places.

Tests used:
NCI-60 cancer cell lines = assay: NCI-60 cancer cell line drug screen (GI50, MGM); format: cell-based, human; conditions: Homo sapiens; for GI50: read-out: Antiproliferative Activities [GI50 (μM)]; for mean GI50 across NCI-60 panel (MGM): average of GI50 values across the entire panel of NCI-60 cancer cell lines
Description: Cancer cells were incubated with the test compounds at five concentrations ranging from 100 μM to 10 nM for 48 h. […] The approximate average of GI50 values across the entire panel of NCI-60 cancer cell lines for each compound was recorded as the MGM value.

human topoisomerase I = target: T1, human topoisomerase I (Homo sapiens, UniProt P11387); conditions: relative topoisomerase I inhibition levels, previously determined, six levels (0 - 5, +++++ = 5); cited from earlier work
T1 sequence (P11387 1-765): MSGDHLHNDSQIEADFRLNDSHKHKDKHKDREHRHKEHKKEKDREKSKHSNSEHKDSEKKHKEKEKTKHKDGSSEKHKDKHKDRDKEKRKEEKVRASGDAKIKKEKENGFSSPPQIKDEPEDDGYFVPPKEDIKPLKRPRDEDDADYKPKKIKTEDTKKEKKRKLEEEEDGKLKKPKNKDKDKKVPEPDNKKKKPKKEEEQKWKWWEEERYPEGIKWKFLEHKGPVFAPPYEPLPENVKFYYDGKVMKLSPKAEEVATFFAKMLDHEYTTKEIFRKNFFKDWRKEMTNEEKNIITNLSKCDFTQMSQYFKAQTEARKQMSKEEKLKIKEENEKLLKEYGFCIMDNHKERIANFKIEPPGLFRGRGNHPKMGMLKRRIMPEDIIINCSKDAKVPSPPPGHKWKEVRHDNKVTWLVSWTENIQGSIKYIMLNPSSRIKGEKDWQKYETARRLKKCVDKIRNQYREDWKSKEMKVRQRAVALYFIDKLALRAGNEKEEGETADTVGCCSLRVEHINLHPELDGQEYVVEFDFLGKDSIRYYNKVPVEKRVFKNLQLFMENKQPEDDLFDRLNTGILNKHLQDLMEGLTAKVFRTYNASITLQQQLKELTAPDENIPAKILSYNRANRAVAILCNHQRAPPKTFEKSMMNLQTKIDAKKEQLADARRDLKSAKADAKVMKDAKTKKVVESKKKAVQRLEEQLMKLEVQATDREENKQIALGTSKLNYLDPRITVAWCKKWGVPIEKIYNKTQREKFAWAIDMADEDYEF

[1] = A549, Non-Small Cell Lung Cancer, A549/ATCC
[2] = COLO 205, Colon Cancer, COLO 205
[3] = DU-145, Prostate Cancer, DU-145
[4] = HCC 2998, Colon Cancer, HCC-2998
[5] = HOP-92, Non-Small Cell Lung Cancer, HOP-92
[6] = Hs-578T, Breast Cancer, HS 578T
[7] = IGROV-1, Ovarian Cancer, IGROV1
[8] = MDA-MB-231, Breast Cancer, MDA-MB-231/ATCC
[9] = MDA-MB-435, Melanoma, MDA-MB-435
[10] = MDA-MB-468, Breast Cancer, MDA-MB-468
[11] = NCI-H23, Non-Small Cell Lung Cancer, NCI-H23
[12] = NCI-H226, Non-Small Cell Lung Cancer, NCI-H226
[13] = NCI-H322M, Non-Small Cell Lung Cancer, NCI-H322M
[14] = NCI-H460, Non-Small Cell Lung Cancer, NCI-H460
[15] = NCI-H522, Non-Small Cell Lung Cancer, NCI-H522
[16] = OVCAR-3, Ovarian Cancer, OVCAR-3
[17] = OVCAR-4, Ovarian Cancer, OVCAR-4
[18] = OVCAR-5, Ovarian Cancer, OVCAR-5
[19] = OVCAR-8, Ovarian Cancer, OVCAR-8
[20] = SK-OV-3, Ovarian Cancer, SK-OV-3

## COc1cnc2c(c1)C(=O)c1c-2n(CCCNCCN2CCOCC2)c(=O)c2cc([N+](=O)[O-])ccc12 [Compound 11]
NCI-60 cancer cell lines; 786-0, Renal Cancer, 786-0
  GI50: 0.22 µM
NCI-60 cancer cell lines; [1]
  GI50: 0.12 µM
NCI-60 cancer cell lines; ACHN, Renal Cancer, ACHN
  GI50: 0.04 µM
NCI-60 cancer cell lines; BT-549, Breast Cancer, BT-549
  GI50: 0.29 µM
NCI-60 cancer cell lines; CAKI-1, Renal Cancer, CAKI-1
  GI50: 0.04 µM
NCI-60 cancer cell lines; CCRF-CEM, Leukemia, CCRF-CEM
  GI50: 0.05 µM
NCI-60 cancer cell lines; [2]
  GI50: 0.3 µM
NCI-60 cancer cell lines; [3]
  GI50: 0.06 µM
NCI-60 cancer cell lines; EKVX, Non-Small Cell Lung Cancer, EKVX
  GI50: 0.45 µM
NCI-60 cancer cell lines; [4]
  GI50: 0.3 µM
NCI-60 cancer cell lines; HCT-15, Colon Cancer, HCT-15
  GI50: 0.3 µM
NCI-60 cancer cell lines; HL-60, Leukemia, HL-60(TB)
  GI50: 0.1 µM
NCI-60 cancer cell lines; [5]
  GI50: 0.87 µM
NCI-60 cancer cell lines; HT-29, Colon Cancer, HT29
  GI50: 0.15 µM
NCI-60 cancer cell lines; [6]
  GI50: 3.85 µM
NCI-60 cancer cell lines; [7]
  GI50: 0.42 µM
NCI-60 cancer cell lines; K562, Leukemia, K-562
  GI50: 0.23 µM
NCI-60 cancer cell lines; KM12, Colon Cancer, KM12
  GI50: 0.4 µM
NCI-60 cancer cell lines; LOX IMVI, Melanoma, LOX IMVI
  GI50: 0.04 µM
NCI-60 cancer cell lines; Leukemia, SR
  GI50: 0.02 µM
NCI-60 cancer cell lines; MCF7, Breast Cancer, MCF7
  GI50: 0.03 µM
NCI-60 cancer cell lines; [8]
  GI50: 0.63 µM
NCI-60 cancer cell lines; [9]
  GI50: 0.42 µM
NCI-60 cancer cell lines; [10]
  GI50: 0.12 µM
NCI-60 cancer cell lines; MOLT-4, Leukemia, MOLT-4
  GI50: 0.03 µM
NCI-60 cancer cell lines; Malme-3M, Melanoma, MALME-3M
  GI50: 0.34 µM
NCI-60 cancer cell lines; Melanoma, M14
  GI50: 0.07 µM
NCI-60 cancer cell lines; [11]
  GI50: 0.15 µM
NCI-60 cancer cell lines; [12]
  GI50: 0.17 µM
NCI-60 cancer cell lines; [13]
  GI50: 0.28 µM
NCI-60 cancer cell lines; [14]
  GI50: 0.04 µM
NCI-60 cancer cell lines; [15]
  GI50: 0.08 µM
NCI-60 cancer cell lines; [16]
  GI50: 0.32 µM
NCI-60 cancer cell lines; [17]
  GI50: 0.33 µM
NCI-60 cancer cell lines; [18]
  GI50: 0.45 µM
NCI-60 cancer cell lines; [19]
  GI50: 0.17 µM
NCI-60 cancer cell lines; Ovarian Cancer, NCl/ADR-RES
  GI50: 0.13 µM
NCI-60 cancer cell lines; Prostate Cancer, PC-3
  GI50: 0.57 µM
NCI-60 cancer cell lines; RPMI-8226, Leukemia, RPMI-8226
  GI50: 0.17 µM
NCI-60 cancer cell lines; RXF 393, Renal Cancer, RXF 393
  GI50: 0.39 µM
NCI-60 cancer cell lines; Renal Cancer, U0-31
  GI50: 0.05 µM
NCI-60 cancer cell lines; SF-268, CNS Cancer, SF-268
  GI50: 0.08 µM
NCI-60 cancer cell lines; SF-295, CNS Cancer, SF-295
  GI50: 0.07 µM
NCI-60 cancer cell lines; SF-539, CNS Cancer, SF-539
  GI50: 0.31 µM
NCI-60 cancer cell lines; SK-MEL-2, Melanoma, SK-MEL-2
  GI50: 1.59 µM
NCI-60 cancer cell lines; SK-MEL-5, Melanoma, SK-MEL-5
  GI50: 0.26 µM
NCI-60 cancer cell lines; SK-MEL-28, Melanoma, SK-MEL-28
  GI50: 1.13 µM
NCI-60 cancer cell lines; [20]
  GI50: 0.14 µM
NCI-60 cancer cell lines; SNB-19, CNS Cancer, SNB-19
  GI50: 0.11 µM
NCI-60 cancer cell lines; SNB-75, CNS Cancer, SNB-75
  GI50: 0.27 µM
NCI-60 cancer cell lines; SW-620, Colon Cancer, SW-620
  GI50: 0.13 µM
NCI-60 cancer cell lines; T47D, Breast Cancer, T-47D
  GI50: 0.11 µM
NCI-60 cancer cell lines; TK-10, Renal Cancer, TK-10
  GI50: 0.73 µM
NCI-60 cancer cell lines; U-251, CNS Cancer, U251
  GI50: 0.08 µM
NCI-60 cancer cell lines; UACC-62, Melanoma, UACC-62
  GI50: 0.04 µM
NCI-60 cancer cell lines; UACC-257, Melanoma, UACC-257
  GI50: 0.59 µM
NCI-60 cancer cell lines
  mean GI50 across NCI-60 panel (MGM): 0.177 µM
Human topoisomerase I
  Top1 Inhibiton: +++ (strong inhibition, +++, MYC expression inhibited at 0.5 to 1.0 μM)

## COc1cc2c(cc1O)-c1c(c3ccc([N+](=O)[O-])cc3c(=O)n1CCCN1CCOCC1)C2=O [Compound 36]
NCI-60 cancer cell lines; 786-0, Renal Cancer, 786-0
  GI50: 0.21 µM
NCI-60 cancer cell lines; A498, Renal Cancer, A498
  GI50: 0.07 µM
NCI-60 cancer cell lines; [1]
  GI50: 0.52 µM
NCI-60 cancer cell lines; ACHN, Renal Cancer, ACHN
  GI50: 0.05 µM
NCI-60 cancer cell lines; BT-549, Breast Cancer, BT-549
  GI50: 0.12 µM
NCI-60 cancer cell lines; CAKI-1, Renal Cancer, CAKI-1
  GI50: 0.12 µM
NCI-60 cancer cell lines; CCRF-CEM, Leukemia, CCRF-CEM
  GI50: 0.05 µM
NCI-60 cancer cell lines; [2]
  GI50: 7.76 µM
NCI-60 cancer cell lines; [3]
  GI50: 0.14 µM
NCI-60 cancer cell lines; [4]
  GI50: 1.42 µM
NCI-60 cancer cell lines; HCT-15, Colon Cancer, HCT-15
  GI50: 1.53 µM
NCI-60 cancer cell lines; HCT-116, Colon Cancer, HCT-116
  GI50: 0.22 µM
NCI-60 cancer cell lines; HL-60, Leukemia, HL-60(TB)
  GI50: 0.08 µM
NCI-60 cancer cell lines; HOP-62, Non-Small Cell Lung Cancer, HOP-62
  GI50: 0.12 µM
NCI-60 cancer cell lines; [5]
  GI50: 0.28 µM
NCI-60 cancer cell lines; HT-29, Colon Cancer, HT29
  GI50: 1.18 µM
NCI-60 cancer cell lines; [6]
  GI50: 1.97 µM
NCI-60 cancer cell lines; [7]
  GI50: 1.52 µM
NCI-60 cancer cell lines; K562, Leukemia, K-562
  GI50: 0.09 µM
NCI-60 cancer cell lines; KM12, Colon Cancer, KM12
  GI50: 1.04 µM
NCI-60 cancer cell lines; LOX IMVI, Melanoma, LOX IMVI
  GI50: 0.09 µM
NCI-60 cancer cell lines; Leukemia, SR
  GI50: 0.03 µM
NCI-60 cancer cell lines; MCF7, Breast Cancer, MCF7
  GI50: 0.05 µM
NCI-60 cancer cell lines; [8]
  GI50: 2.06 µM
NCI-60 cancer cell lines; [9]
  GI50: 0.89 µM
NCI-60 cancer cell lines; [10]
  GI50: 0.14 µM
NCI-60 cancer cell lines; MOLT-4, Leukemia, MOLT-4
  GI50: 0.03 µM
NCI-60 cancer cell lines; Malme-3M, Melanoma, MALME-3M
  GI50: 1.16 µM
NCI-60 cancer cell lines; Melanoma, M14
  GI50: 0.08 µM
NCI-60 cancer cell lines; [11]
  GI50: 0.17 µM
NCI-60 cancer cell lines; [12]
  GI50: 0.45 µM
NCI-60 cancer cell lines; [13]
  GI50: 0.66 µM
NCI-60 cancer cell lines; [14]
  GI50: 0.03 µM
NCI-60 cancer cell lines; [15]
  GI50: 0.05 µM
NCI-60 cancer cell lines; [16]
  GI50: 0.57 µM
NCI-60 cancer cell lines; [17]
  GI50: 1.29 µM
NCI-60 cancer cell lines; [18]
  GI50: 3.6 µM
NCI-60 cancer cell lines; [19]
  GI50: 0.45 µM
NCI-60 cancer cell lines; Ovarian Cancer, NCl/ADR-RES
  GI50: 0.28 µM
NCI-60 cancer cell lines; Prostate Cancer, PC-3
  GI50: 0.67 µM
NCI-60 cancer cell lines; RPMI-8226, Leukemia, RPMI-8226
  GI50: 0.12 µM
NCI-60 cancer cell lines; RXF 393, Renal Cancer, RXF 393
  GI50: 0.46 µM
NCI-60 cancer cell lines; Renal Cancer, U0-31
  GI50: 0.07 µM
NCI-60 cancer cell lines; SF-268, CNS Cancer, SF-268
  GI50: 0.04 µM
NCI-60 cancer cell lines; SF-295, CNS Cancer, SF-295
  GI50: 0.18 µM
NCI-60 cancer cell lines; SF-539, CNS Cancer, SF-539
  GI50: 0.27 µM
NCI-60 cancer cell lines; SK-MEL-2, Melanoma, SK-MEL-2
  GI50: 9.44 µM
NCI-60 cancer cell lines; SK-MEL-5, Melanoma, SK-MEL-5
  GI50: 0.22 µM
NCI-60 cancer cell lines; SK-MEL-28, Melanoma, SK-MEL-28
  GI50: 1.37 µM
NCI-60 cancer cell lines; [20]
  GI50: 0.24 µM
NCI-60 cancer cell lines; SN12C, Renal Cancer, SN12C
  GI50: 0.2 µM
NCI-60 cancer cell lines; SNB-19, CNS Cancer, SNB-19
  GI50: 0.39 µM
NCI-60 cancer cell lines; SNB-75, CNS Cancer, SNB-75
  GI50: 0.21 µM
NCI-60 cancer cell lines; SW-620, Colon Cancer, SW-620
  GI50: 0.08 µM
NCI-60 cancer cell lines; T47D, Breast Cancer, T-47D
  GI50: 0.56 µM
NCI-60 cancer cell lines; TK-10, Renal Cancer, TK-10
  GI50: 2.12 µM
NCI-60 cancer cell lines; U-251, CNS Cancer, U251
  GI50: 0.12 µM
NCI-60 cancer cell lines; UACC-62, Melanoma, UACC-62
  GI50: 0.05 µM
NCI-60 cancer cell lines; UACC-257, Melanoma, UACC-257
  GI50: 0.48 µM
NCI-60 cancer cell lines
  mean GI50 across NCI-60 panel (MGM): 0.28 µM
Human topoisomerase I
  Top1 Inhibiton: ++ (medium inhibition, ++, MYC expression inhibited at 2.0 μM, or no clear dose-dependent MYC inhibition)
